In patent publication US20170190671A1, “BIS(ARYL)CATECHOL DERIVATIVES AS HERBICIDES” (E I DU PONT DE NEMOURS AND COMPANY, priority 2014, published 2017):

Assays:
Type in all cases: in vivo
[1] = tested on: winter wheat (Triticum aestivum); assay: Test C postemergence; conditions: Triticum aestivum, post-emergence, 336 h, Postemergence, scale 0 to 100, read-out: Plant response rating, Wheat
[2] = tested on: johnsongrass (Sorghum halepense); assay: Test C postemergence; conditions: Sorghum halepense, post-emergence, 336 h, Postemergence, scale 0 to 100, read-out: Plant response rating, Johnsongrass
[3] = tested on: velvetleaf (Abutilon theophrasti); assay: Test C postemergence; conditions: Abutilon theophrasti, post-emergence, Postemergence, scale 0 to 100, read-out: Plant response rating, Velvetleaf
[4] = tested on: corn (Zea mays); assay: Test C postemergence; conditions: Zea mays, post-emergence, 336 h, Postemergence, scale 0 to 100
[5] = tested on: pigweed (Amaranthus retroflexus); assay: Test C postemergence; conditions: Amaranthus retroflexus, post-emergence, 336 h, Postemergence, scale 0 to 100, read-out: Plant response rating, Pigweed
[6] = tested on: ragweed (common ragweed, Ambrosia elatior); assay: Test C postemergence; conditions: Ambrosia artemisiifolia, post-emergence, 336 h, Postemergence, scale 0 to 100, read-out: Plant response rating, Ragweed
[7] = tested on: lambsquarters (Chenopodium album); assay: Test C postemergence; conditions: Chenopodium album, post-emergence, 336 h, Postemergence, scale 0 to 100, read-out: Plant response rating, Lambsquarters
[8] = tested on: soybean (Glycine max); assay: Test C postemergence; conditions: Glycine max, post-emergence, Postemergence, scale 0 to 100, read-out: Plant response rating, Soybean
[9] = tested on: chickweed (common chickweed, Stellaria media); assay: Test C postemergence; conditions: Stellaria media, post-emergence, Postemergence, scale 0 to 100, read-out: Plant response rating, Chickweed
[10] = tested on: blackgrass (Alopecurus myosuroides); assay: Test C postemergence; conditions: Alopecurus myosuroides, post-emergence, 336 h, Postemergence, scale 0 to 100, read-out: Plant response rating, Blackgrass
[11] = tested on: Italian ryegrass (Lolium multiflorum); assay: Test C postemergence; conditions: Lolium multiflorum, post-emergence, 336 h, Postemergence, scale 0 to 100, read-out: Plant response rating, Ryegrass, Italian
[12] = tested on: large (Lg) crabgrass (Digitaria sanguinalis); assay: Test C postemergence; conditions: Digitaria sanguinalis, post-emergence, 336 h, Postemergence, scale 0 to 100, read-out: Plant response rating, Crabgrass, Large
[13] = tested on: yellow nutsedge (Cyperus esculentus); assay: Test C postemergence; conditions: Cyperus, post-emergence, 336 h, Postemergence, scale 0 to 100, read-out: Plant response rating, Nutsedge, Yellow
[14] = tested on: oilseed rape (Brassica napus); assay: Test C postemergence; conditions: Brassica napus, post-emergence, Postemergence, scale 0 to 100, read-out: Plant response rating, Oilseed Rape
[15] = tested on: giant foxtail (Setaria faberii); assay: Test C postemergence; conditions: Setaria faberi, post-emergence, 336 h, Postemergence, scale 0 to 100, read-out: Plant response rating, Foxtail, Giant
[16] = tested on: morningglory (Ipomoea coccinea); assay: Test C postemergence; conditions: Ipomoea, post-emergence, 336 h, Postemergence, scale 0 to 100, read-out: Plant response rating, Morningglory
[17] = tested on: galium (catchweed bedstraw, Galium aparine); assay: Test C postemergence; conditions: Galium, post-emergence, 336 h, Postemergence, scale 0 to 100, read-out: Plant response rating, Galium
[18] = tested on: barnyardgrass (Echinochloa crus-galli); assay: Test C postemergence; conditions: Echinochloa crus-galli, post-emergence, Postemergence, scale 0 to 100, read-out: Plant response rating, Barnyardgrass
[19] = tested on: winter wheat (Triticum aestivum); assay: Test C preemergence; conditions: Triticum aestivum, pre-emergence, 336 h, scale 0 to 100, read-out: Plant response rating, Wheat
How it was run: (§1)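 Steps: plant seeds in loam-sand soil and treat preemergence, or grow plants in peat-based medium to 2-18 cm and spray; compound formulated in non-phytotoxic solvent/surfactant; hold in greenhouse 13-15 days; score visually versus controls from 0 (no effect) to 100 (complete control).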

[20] = tested on: large (Lg) crabgrass (Digitaria sanguinalis); assay: Test C preemergence; conditions: Digitaria sanguinalis, pre-emergence, 336 h, scale 0 to 100, read-out: Plant response rating, Crabgrass, Large
How it was run: as §1

[21] = tested on: oilseed rape (Brassica napus); assay: Test C preemergence; conditions: Brassica napus, pre-emergence, scale 0 to 100, read-out: Plant response rating, Oilseed Rape
How it was run: as §1

[22] = tested on: giant foxtail (Setaria faberii); assay: Test C preemergence; conditions: Setaria faberi, pre-emergence, 336 h, scale 0 to 100, read-out: Plant response rating, Foxtail, Giant
How it was run: as §1

N#Cc1cccc(Oc2ncc(C(F)(F)F)cn2)c1Oc1ncc(Cl)cn1 [Compound 39, 2-[(5-chloro-2-pyrimidinyl)oxy]-3-[[5-(trifluoromethyl)-2-pyrimidinyl]oxy]-benzonitrile]
20%: Corn plant response rating (crop injury, 0 = no effect, 100 = complete kill) at 125 g/ha ([4]; 125 g ai/ha) | pest or weed control at 125 g/ha ([15]; 125 g ai/ha)
15%: pest or weed control at 31 g/ha ([2]; 31 g ai/ha) | pest or weed control at 62 g/ha ([10]; 62 g ai/ha) | pest or weed control at 31 g/ha ([18]; 31 g ai/ha) | pest or weed control at 62 g/ha ([18]; 62 g ai/ha)
10%: pest or weed control at 62 g/ha ([2]; 62 g ai/ha) | pest or weed control at 125 g/ha ([2]; 125 g ai/ha) | Corn plant response rating (crop injury, 0 = no effect, 100 = complete kill) at 31 g/ha ([4]; 31 g ai/ha) | Corn plant response rating (crop injury, 0 = no effect, 100 = complete kill) at 62 g/ha ([4]; 62 g ai/ha) | pest or weed control at 31 g/ha ([10]; 31 g ai/ha) | pest or weed control at 125 g/ha ([11]; 125 g ai/ha) | pest or weed control at 62 g/ha ([12]; 62 g ai/ha) | pest or weed control at 125 g/ha ([12]; 125 g ai/ha) | pest or weed control at 16 g/ha ([15]; 16 g ai/ha) | pest or weed control at 31 g/ha ([15]; 31 g ai/ha) | pest or weed control at 62 g/ha ([15]; 62 g ai/ha)
65%: pest or weed control at 31 g/ha ([6]; 31 g ai/ha)
70%: pest or weed control at 31 g/ha ([5]; 31 g ai/ha) | pest or weed control at 31 g/ha ([7]; 31 g ai/ha) | plant injury at 125 g/ha ([8]; 125 g ai/ha)
30%: pest or weed control at 125 g/ha ([10]; 125 g ai/ha) | plant injury at 62 g/ha ([19]; 62 g ai/ha, preemergence)
90%: pest or weed control at 62 g/ha ([5]; 62 g ai/ha) | pest or weed control at 62 g/ha ([9]; 62 g ai/ha) | pest or weed control at 125 g/ha ([9]; 125 g ai/ha) | pest or weed control at 62 g/ha ([16]; 62 g ai/ha) | pest or weed control at 125 g/ha ([17]; 125 g ai/ha) | plant injury at 31 g/ha ([21]; 31 g ai/ha, preemergence)
25%: pest or weed control at 125 g/ha ([18]; 125 g ai/ha)
5%: plant injury at 62 g/ha ([1]; 62 g ai/ha) | pest or weed control at 16 g/ha ([2]; 16 g ai/ha) | Corn plant response rating (crop injury, 0 = no effect, 100 = complete kill) at 16 g/ha ([4]; 16 g ai/ha) | pest or weed control at 16 g/ha ([10]; 16 g ai/ha) | pest or weed control at 62 g/ha ([11]; 62 g ai/ha) | pest or weed control at 16 g/ha ([12]; 16 g ai/ha) | pest or weed control at 31 g/ha ([12]; 31 g ai/ha) | pest or weed control at 31 g/ha ([13]; 31 g ai/ha) | pest or weed control at 62 g/ha ([13]; 62 g ai/ha) | pest or weed control at 125 g/ha ([13]; 125 g ai/ha) | plant injury at 31 g/ha ([14]; 31 g ai/ha) | pest or weed control at 16 g/ha ([18]; 16 g ai/ha)
95%: pest or weed control at 125 g/ha ([5]; 125 g ai/ha) | plant injury at 62 g/ha ([8]; 62 g ai/ha) | pest or weed control at 31 g/ha ([22]; 31 g ai/ha, preemergence)
85%: pest or weed control at 125 g/ha ([6]; 125 g ai/ha) | pest or weed control at 125 g/ha ([7]; 125 g ai/ha) | pest or weed control at 125 g/ha ([16]; 125 g ai/ha)
0%: plant injury at 31 g/ha ([1]; 31 g ai/ha) | plant injury at 125 g/ha ([1]; 125 g ai/ha) | pest or weed control at 31 g/ha ([11]; 31 g ai/ha) | plant injury at 31 g/ha ([19]; 31 g ai/ha, preemergence) | plant injury at 16 g/ha ([19]; Preemergence, 16 g ai/ha)
55%: pest or weed control at 31 g/ha ([3]; 31 g ai/ha) | pest or weed control at 16 g/ha ([22]; Preemergence, 16 g ai/ha)
60%: pest or weed control at 62 g/ha ([3]; 62 g ai/ha) | pest or weed control at 125 g/ha ([3]; 125 g ai/ha) | pest or weed control at 62 g/ha ([6]; 62 g ai/ha) | plant injury at 31 g/ha ([8]; 31 g ai/ha) | pest or weed control at 16 g/ha ([9]; 16 g ai/ha) | pest or weed control at 31 g/ha ([9]; 31 g ai/ha) | pest or weed control at 16 g/ha ([17]; 16 g ai/ha) | plant injury at 125 g/ha ([19]; 125 g ai/ha, preemergence)
40%: plant injury at 62 g/ha ([14]; 62 g ai/ha) | plant injury at 125 g/ha ([14]; 125 g ai/ha)
80%: pest or weed control at 62 g/ha ([7]; 62 g ai/ha) | pest or weed control at 31 g/ha ([17]; 31 g ai/ha) | pest or weed control at 62 g/ha ([17]; 62 g ai/ha) | plant injury at 16 g/ha ([21]; Preemergence, 16 g ai/ha)
75%: pest or weed control at 16 g/ha ([7]; 16 g ai/ha) | pest or weed control at 31 g/ha ([16]; 31 g ai/ha)
100%: pest or weed control at 31 g/ha ([20]; 31 g ai/ha, preemergence) | pest or weed control at 62 g/ha ([20]; 62 g ai/ha, preemergence) | pest or weed control at 125 g/ha ([20]; 125 g ai/ha, preemergence) | pest or weed control at 16 g/ha ([20]; Preemergence, 16 g ai/ha) | plant injury at 62 g/ha ([21]; 62 g ai/ha, preemergence) | plant injury at 125 g/ha ([21]; 125 g ai/ha, preemergence) | pest or weed control at 62 g/ha ([22]; 62 g ai/ha, preemergence) | pest or weed control at 125 g/ha ([22]; 125 g ai/ha, preemergence)
